This data set can be described thus: Cellular CaCo2 permeability assay from apical to basal (A-B). The conditions noted are these: human, Caco-2, read-out: Pe A-B (permeability). Type of data set: in vitro ADME. The text has this: The permeability in 10^−6 cm/s of compounds of formula (I) have been confirmed for selected example using a cellular CaCo2 permeability assay from apical to basal (A-B): […]
Background: Passage across Caco-2 layers is used to estimate intestinal permeability.

With `Cc1nn(C)cc1-n1c(=O)n(C)c2cnc3ccc(-c4ccc(N(C)C)nc4)cc3c21` [Example 4.5, 8-(6-Dimethylamino-pyridin-3-yl)-1-(1,3-dimethyl-1H-pyrazol-4-yl)-3-methyl-1,3-dihydro-imidazo[4,5-c]quinolin-2-one], the Papp A→B turned out to be 16.1 ×10⁻⁶ cm/s.
The figure for `COc1ccc(-c2ccc3ncc4c(c3c2)n(-c2cn(C)nc2C)c(=O)n4C)cn1` [Example 2.5, 1-(1,3-Dimethyl-1H-pyrazol-4-yl)-8-(6-methoxy-pyridin-3-yl)-3-methyl-1,3-dihydro-imidazo[4,5-c]quinolin-2-one] is 38.4 ×10⁻⁶ cm/s.
Consider `Cc1nn(C)cc1-n1c(=O)n(C)c2cnc3ccc(-c4cncc(N5CCOCC5)c4)cc3c21` [Example 175.1, 1-(1,3-Dimethyl-1H-pyrazol-4-yl)-3-methyl-8-(5-morpholin-4-yl-pyridin-3-yl)-1,3-dihydro-imidazo[4,5-c]quinolin-2-one], for which the Papp A→B is 7.8 ×10⁻⁶ cm/s.
In the case of `CCNc1cc(-c2ccc3ncc4c(c3c2)n(-c2cn(CC)nc2C)c(=O)n4C)cnc1CO` [Example 155.2, 8-(5-Ethylamino-6-hydroxymethyl-pyridin-3-yl)-1-(1-ethyl-3-methyl-1H-pyrazol-4-yl)-3-methyl-1,3-dihydro-imidazo[4,5-c]quinolin-2-one] it was 10.9 ×10⁻⁶ cm/s; in that of `CCOc1ccc(-c2ccc3ncc4c(c3c2)n(-c2c(C)nn(C)c2C)c(=O)n4C)cn1` [Example 3.3, 8-(6-Ethoxy-pyridin-3-yl)-3-methyl-1-(1,3,5-trimethyl-1H-pyrazol-4-yl)-1,3-dihydro-imidazo[4,5-c]quinolin-2-one], 21 ×10⁻⁶ cm/s; in that of `CCn1cc(-n2c(=O)n(C)c3cnc4ccc(-c5ccc(OC)c(OC)c5)cc4c32)c(C)n1` [Example 1.6, 8-(3,4-Dimethoxy-phenyl)-1-(1-ethyl-3-methyl-1H-pyrazol-4-yl)-3-methyl-1,3-dihydro-imidazo[4,5-c]quinolin-2-one], 31.6 ×10⁻⁶ cm/s.
The figure for `Cc1nn(C)cc1-n1c(=O)n(C)c2cnc3ccc(-c4cncc(N5CCC5)c4)cc3c21` [Example 179, 8-(5-Azetidin-1-yl-pyridin-3-yl)-1-(1,3-dimethyl-1H-pyrazol-4-yl)-3-methyl-1,3-dihydro-imidazo[4,5-c]quinolin-2-one] is 16 ×10⁻⁶ cm/s.
In the case of `CCOc1ccc(-c2ccc3ncc4c(c3c2)n(-c2cn(CC(=O)N(C)C)nc2C)c(=O)n4C)cn1` [Example 3.9, 2-{4-[8-(6-Ethoxy-pyridin-3-yl)-3-methyl-2-oxo-2,3-dihydro-imidazo[4,5-c]quinolin-1-yl]-3-methyl-pyrazol-1-yl}-N,N-dimethyl-acetamide] it was 14.8 ×10⁻⁶ cm/s.
Regarding `CCn1cc(-n2c(=O)n(C)c3cnc4ccc(-c5ccc(OC)nc5)cc4c32)c(C)n1` [Example 2.7, 1-(1-Ethyl-3-methyl-1H-pyrazol-4-yl)-8-(6-methoxy-pyridin-3-yl)-3-methyl-1,3-dihydro-imidazo[4,5-c]quinolin-2-one], the Papp A→B was 21.5 ×10⁻⁶ cm/s.
Turning to `CCOc1ccc(-c2ccc3ncc4c(c3c2)n(-c2cn(C(C)C)nc2C)c(=O)n4C)cn1` [Example 3.7, 8-(6-Ethoxy-pyridin-3-yl)-1-(1-isopropyl-3-methyl-1H-pyrazol-4-yl)-3-methyl-1,3-dihydro-imidazo[4,5-c]quinolin-2-one], the Papp A→B turned out to be 27.8 ×10⁻⁶ cm/s.
The figure for `CCNc1cc(-c2ccc3ncc4c(c3c2)n(-c2cn(C)nc2Cl)c(=O)n4C)cnc1C` [Example 87.2, 1-(3-Chloro-1-methyl-1H-pyrazol-4-yl)-8-(5-ethylamino-6-methyl-pyridin-3-yl)-3-methyl-1,3-dihydro-imidazo[4,5-c]quinolin-2-one] is 29.9 ×10⁻⁶ cm/s.

These data come from patent US20140005163A1 (NOVARTIS AG, priority 2010, published 2014).
